# Measured values from US20220389061A1, “IMMUNOMODULATORS” (priority 2019, published 2022).
# Starred links: 1 amine or outer side, 2 acyl side, 3 side chain; linkers in the order of their positions; H or OH if unused. Positions of bridges follow the written chain, without caps; N, C: chain ends. Non-standard residues stand in square brackets, D forms with d. Residues, ends and D or L forms follow the SMILES beside them. Groups on a side chain read outwards from the residue. *: point of attachment. Trp(1-CH2CO2Me) = COC(=O)Cn1cc(C[C@H](N)C(=O)O)c2ccccc21; Trp(1-CH2COOH) = N[C@@H](Cc1cn(CC(=O)O)c2ccccc12)C(=O)O; Benzoyl(2-(4-MeOPh)) = COc1ccc(-c2ccccc2C(=O)*)cc1; Hyp = O=C(O)[C@@H]1C[C@@H](O)CN1; X32 = c1ccc2c(c1)Cc1cc(N*)ccc1-2; X3 = S=C(Nc1ccc(Oc2ccccc2)cc1)*; X96 = Fc1cc(F)c(NC(=S)*)c(F)c1; X29 = c1ccc(Oc2ccc(N*)cc2)cc1; X36 = c1ccc(Oc2cccc(N*)c2)cc1; X60 = Cc1cc2cc(NC(=S)*)ccc2o1; NMeNle = CCCC[C@H](NC)C(=O)O; X7 = S=C(Nc1ccc2cc[nH]c2c1)*; X2 = c1ccc(-c2ccccc2N*)cc1; X59 = S=C(Nc1ccc2nsnc2c1)*; X74 = Cc1cc(C)c(N*)c(C)c1; NMeA = CN[C@@H](C)C(=O)O; Dab = NCC[C@H](N)C(=O)O; Dap = NC[C@H](N)C(=O)O; X37 = Fc1cc(F)cc(N*)c1; CO = O=C([*:1])[*:2]
# Target: T1, PD-1/PD-L1 (Homo sapiens, UniProt Q9NZQ7)
# T1 construct: TVMV protease site linker (C); made in house; host or cells: HEK293T cells
# Test: PD-1/PD-L1 Homogenous Time-Resolved Fluorescence (HTRF) binding assay
# Settings: not given
# Text: The ability of the compounds of formula (I) to bind to PD-L1 was investigated using a PD-1/PD-L1 Homogenous Time-Resolved Fluorescence (HTRF) binding assay.
# The interaction of PD-1 and PD-L1 can be assessed using soluble, purified preparations of the extracellular domains of the two proteins. The PD-1 and PD-L1 protein extracellular domains were expressed as fusion proteins with detection tags, for PD-1, the tag was the Fc portion of Immunoglobulin (PD-1-Ig) and for PD-L1 it was the 6 histidine motif (PD-L1-His). All binding studies were performed in an HTRF assay buffer consisting of dPBS supplemented with 0.1% […] bovine serum albumin and 0.05% (v/v) Tween-20. For the h/PD-L1-His binding assay, inhibitors were pre-incubated with PD-L1-His (10 nM final) for 15 m in 4 μl of assay buffer, followed by addition of PD-1-Ig (20 nM final) in 1 μl of assay buffer and further incubation for 15 m. HTRF detection was achieved using europium crypate-labeled anti-Ig (1 nM final) and allophycocyanin (APC) labeled anti-His (20 nM final). Antibodies were diluted in HTRF detection buffer and 5 μl was dispensed on top of the binding reaction. […] Additional binding assays were established between the human proteins PD-1-Ig/PD-L2-His (20 & 5 nM, respectively) and CD80-His/PD-L1-Ig (100 & 10 nM, respectively). […]
# T1 sequence (Q9NZQ7 18-239): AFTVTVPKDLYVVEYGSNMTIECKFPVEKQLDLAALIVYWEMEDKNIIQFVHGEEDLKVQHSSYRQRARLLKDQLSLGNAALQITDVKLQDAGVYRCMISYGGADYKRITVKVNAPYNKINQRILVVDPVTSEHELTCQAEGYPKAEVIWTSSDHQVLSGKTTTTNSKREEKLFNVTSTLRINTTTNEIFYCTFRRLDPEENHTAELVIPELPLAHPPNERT
row,SMILES,IC50
1,CCCC[C@H]1C(=O)N(C)[C@@H](CCCC)C(=O)N[C@@H](CC(C)C)C(=O)N[C@H](C(=O)NCC(N)=O)CSCC(=O)N[C@@H](Cc2ccc(O)cc2)C(=O)N(C)[C@@H](C)C(=O)N[C@@H](CC(N)=O)C(=O)N2CCC[C@H]2C(=O)N[C@@H](CNC(=O)Nc2ccc3c(c2)Cc2ccccc2-3)C(=O)N[C@@H](CC(C)C)C(=O)N2C[C@H](O)C[C@H]2C(=O)N[C@@H](Cc2c[nH]c3ccccc23)C(=O)N[C@@H](CCNC(=O)Nc2ccc3c(c2)Cc2ccccc2-3)C(=O)N[C@@H](Cc2cn(CC(=O)O)c3ccccc23)C(=O)N1C [Example 2008] ({CH2CO}-Y[NMeA]NP[Dap]([CO-X32])L[Hyp]W[Dab]([CO-X32])[Trp(1-CH2COOH)][NMeNle][NMeNle]LCG-NH2; thioether N-14),46.7 nM

# Same assay, conditions: PD-L1-His 10 nM pre-incubated with inhibitor, PD-1-Ig 20 nM; read-out: HTRF IC50
row,SMILES,IC50
1,CCCC[C@H]1C(=O)N(C)[C@@H](CCCC)C(=O)N[C@@H](CC(C)C)C(=O)N[C@H](C(=O)NCC(N)=O)CSCC(=O)N[C@@H](Cc2ccc(O)cc2)C(=O)N(C)[C@@H](C)C(=O)N[C@@H](CC(N)=O)C(=O)N2CCC[C@H]2C(=O)N[C@@H](CNC(=S)Nc2c(F)cc(F)cc2F)C(=O)N[C@@H](CC(C)C)C(=O)N2C[C@H](O)C[C@H]2C(=O)N[C@@H](Cc2c[nH]c3ccccc23)C(=O)N[C@@H](CCNC(=S)Nc2c(F)cc(F)cc2F)C(=O)N[C@@H](Cc2cn(CC(=O)O)c3ccccc23)C(=O)N1C [Example 1044] ({CH2CO}-Y[NMeA]NP[Dap](X96)L[Hyp]W[Dab](X96)[Trp(1-CH2COOH)][NMeNle][NMeNle]LCG-NH2; thioether N-14),3.3 nM
2,CCCC[C@H]1C(=O)N(C)[C@@H](CCCC)C(=O)N[C@@H](CC(C)C)C(=O)N[C@H](C(=O)NCC(N)=O)CSCC(=O)N[C@@H](Cc2ccc(O)cc2)C(=O)N(C)[C@@H](C)C(=O)N[C@@H](CC(N)=O)C(=O)N2CCC[C@H]2C(=O)N[C@@H](CNC(=O)Nc2cccc(Oc3ccccc3)c2)C(=O)N[C@@H](CC(C)C)C(=O)N2C[C@H](O)C[C@H]2C(=O)N[C@@H](Cc2c[nH]c3ccccc23)C(=O)N[C@@H](CCNC(=O)Nc2cccc(Oc3ccccc3)c2)C(=O)N[C@@H](Cc2cn(CC(=O)O)c3ccccc23)C(=O)N1C [Example 1020] ({CH2CO}-Y[NMeA]NP[Dap]([CO-X36])L[Hyp]W[Dab]([CO-X36])[Trp(1-CH2COOH)][NMeNle][NMeNle]LCG-NH2; thioether N-14),24 nM
3,CCCC[C@H]1C(=O)N(C)[C@@H](CCCC)C(=O)N[C@@H](CC(C)C)C(=O)N[C@H](C(=O)NCC(N)=O)CSCC(=O)N[C@@H](Cc2ccc(O)cc2)C(=O)N(C)[C@@H](C)C(=O)N[C@@H](CC(N)=O)C(=O)N2CCC[C@H]2C(=O)N[C@@H](CNC(=O)c2ccccc2-c2ccc(OC)cc2)C(=O)N[C@@H](CC(C)C)C(=O)N2C[C@H](O)C[C@H]2C(=O)N[C@@H](Cc2c[nH]c3ccccc23)C(=O)N[C@@H](CCN)C(=O)N[C@@H](Cc2cn(CC(=O)OC)c3ccccc23)C(=O)N1C [Example 1057] ({CH2CO}-Y[NMeA]NP[Dap](Benzoyl(2-(4-MeOPh)))L[Hyp]W[Dab][Trp(1-CH2CO2Me)][NMeNle][NMeNle]LCG-NH2; thioether N-14),3.2 nM
4,CCCC[C@H]1C(=O)N(C)[C@@H](CCCC)C(=O)N[C@@H](CC(C)C)C(=O)N[C@H](C(=O)NCC(N)=O)CSCC(=O)N[C@@H](Cc2ccc(O)cc2)C(=O)N(C)[C@@H](C)C(=O)N[C@@H](CC(N)=O)C(=O)N2CCC[C@H]2C(=O)N[C@@H](CNC(=O)Nc2ccc(Oc3ccccc3)cc2)C(=O)N[C@@H](CC(C)C)C(=O)N2C[C@H](O)C[C@H]2C(=O)N[C@@H](Cc2c[nH]c3ccccc23)C(=O)N[C@@H](CCNC(=O)Nc2ccc(Oc3ccccc3)cc2)C(=O)N[C@@H](Cc2cn(CC(=O)O)c3ccccc23)C(=O)N1C [Example 1023] ({CH2CO}-Y[NMeA]NP[Dap]([CO-X29])L[Hyp]W[Dab]([CO-X29])[Trp(1-CH2COOH)][NMeNle][NMeNle]LCG-NH2; thioether N-14),32 nM
5,CCCC[C@H]1C(=O)N(C)[C@@H](CCCC)C(=O)N[C@@H](CC(C)C)C(=O)N[C@H](C(=O)NCC(N)=O)CSCC(=O)N[C@@H](Cc2ccc(O)cc2)C(=O)N(C)[C@@H](C)C(=O)N[C@@H](CC(N)=O)C(=O)N2CCC[C@H]2C(=O)N[C@@H](CN)C(=O)N[C@@H](CC(C)C)C(=O)N2C[C@H](O)C[C@H]2C(=O)N[C@@H](Cc2c[nH]c3ccccc23)C(=O)N[C@@H](CCNC(=O)Nc2cc(F)cc(F)c2)C(=O)N[C@@H](Cc2cn(CC(=O)O)c3ccccc23)C(=O)N1C [Example 1101] ({CH2CO}-Y[NMeA]NP[Dap]L[Hyp]W[Dab]([CO-X37])[Trp(1-CH2COOH)][NMeNle][NMeNle]LCG-NH2; thioether N-14),8.6 nM
6,CCCC[C@H]1C(=O)N(C)[C@@H](CCCC)C(=O)N[C@@H](CC(C)C)C(=O)N[C@H](C(=O)NCC(N)=O)CSCC(=O)N[C@@H](Cc2ccc(O)cc2)C(=O)N(C)[C@@H](C)C(=O)N[C@@H](CC(N)=O)C(=O)N2CCC[C@H]2C(=O)N[C@@H](CNC(=O)Nc2c(C)cc(C)cc2C)C(=O)N[C@@H](CC(C)C)C(=O)N2C[C@H](O)C[C@H]2C(=O)N[C@@H](Cc2c[nH]c3ccccc23)C(=O)N[C@@H](CCNC(=O)Nc2c(C)cc(C)cc2C)C(=O)N[C@@H](Cc2cn(CC(=O)O)c3ccccc23)C(=O)N1C [Example 1081] ({CH2CO}-Y[NMeA]NP[Dap]([CO-X74])L[Hyp]W[Dab]([CO-X74])[Trp(1-CH2COOH)][NMeNle][NMeNle]LCG-NH2; thioether N-14),2.7 nM

# The next lines start with the values.
row,IC50,SMILES
1,2.8 nM,CCCC[C@H]1C(=O)N(C)[C@@H](CCCC)C(=O)N[C@@H](CC(C)C)C(=O)N[C@H](C(=O)NCC(N)=O)CSCC(=O)N[C@@H](Cc2ccc(O)cc2)C(=O)N(C)[C@@H](C)C(=O)N[C@@H](CC(N)=O)C(=O)N2CCC[C@H]2C(=O)N[C@@H](CNC(=S)Nc2ccc3oc(C)cc3c2)C(=O)N[C@@H](CC(C)C)C(=O)N2C[C@H](O)C[C@H]2C(=O)N[C@@H](Cc2c[nH]c3ccccc23)C(=O)N[C@@H](CCN)C(=O)N[C@@H](Cc2cn(CC(=O)O)c3ccccc23)C(=O)N1C [Example 3055] ({CH2CO}-Y[NMeA]NP[Dap](X60)L[Hyp]W[Dab][Trp(1-CH2COOH)][NMeNle][NMeNle]LCG-NH2; thioether N-14)
2,4.3 nM,CCCC[C@H]1C(=O)N(C)[C@@H](CCCC)C(=O)N[C@@H](CC(C)C)C(=O)N[C@H](C(=O)NCC(N)=O)CSCC(=O)N[C@@H](Cc2ccc(O)cc2)C(=O)N(C)[C@@H](C)C(=O)N[C@@H](CC(N)=O)C(=O)N2CCC[C@H]2C(=O)N[C@@H](CNC(=S)Nc2ccc3cc[nH]c3c2)C(=O)N[C@@H](CC(C)C)C(=O)N2C[C@H](O)C[C@H]2C(=O)N[C@@H](Cc2c[nH]c3ccccc23)C(=O)N[C@@H](CCNC(=S)Nc2ccc3cc[nH]c3c2)C(=O)N[C@@H](Cc2cn(CC(=O)O)c3ccccc23)C(=O)N1C [Example 3002] ({CH2CO}-Y[NMeA]NP[Dap](X7)L[Hyp]W[Dab](X7)[Trp(1-CH2COOH)][NMeNle][NMeNle]LCG-NH2; thioether N-14)
3,6.4 nM,CCCC[C@H]1C(=O)N(C)[C@@H](CCCC)C(=O)N[C@@H](CC(C)C)C(=O)N[C@H](C(=O)NCC(N)=O)CSCC(=O)N[C@@H](Cc2ccc(O)cc2)C(=O)N(C)[C@@H](C)C(=O)N[C@@H](CC(N)=O)C(=O)N2CCC[C@H]2C(=O)N[C@@H](CNC(=S)Nc2ccc3nsnc3c2)C(=O)N[C@@H](CC(C)C)C(=O)N2C[C@H](O)C[C@H]2C(=O)N[C@@H](Cc2c[nH]c3ccccc23)C(=O)N[C@@H](CCNC(=S)Nc2ccc3nsnc3c2)C(=O)N[C@@H](Cc2cn(CC(=O)O)c3ccccc23)C(=O)N1C [Example 3008] ({CH2CO}-Y[NMeA]NP[Dap](X59)L[Hyp]W[Dab](X59)[Trp(1-CH2COOH)][NMeNle][NMeNle]LCG-NH2; thioether N-14)
4,3.3 nM,CCCC[C@H]1C(=O)N(C)[C@@H](CCCC)C(=O)N[C@@H](CC(C)C)C(=O)N[C@H](C(=O)NCC(N)=O)CSCC(=O)N[C@@H](Cc2ccc(O)cc2)C(=O)N(C)[C@@H](C)C(=O)N[C@@H](CC(N)=O)C(=O)N2CCC[C@H]2C(=O)N[C@@H](CNC(=S)Nc2ccc(Oc3ccccc3)cc2)C(=O)N[C@@H](CC(C)C)C(=O)N2C[C@H](O)C[C@H]2C(=O)N[C@@H](Cc2c[nH]c3ccccc23)C(=O)N[C@@H](CCN)C(=O)N[C@@H](Cc2cn(CC(=O)O)c3ccccc23)C(=O)N1C [Example 1045] ({CH2CO}-Y[NMeA]NP[Dap](X3)L[Hyp]W[Dab][Trp(1-CH2COOH)][NMeNle][NMeNle]LCG-NH2; thioether N-14)

# Same assay, conditions: read-out: HTRF IC50; PD-L1-His 10 nM pre-incubated with inhibitor, PD-1-Ig 20 nM
row,SMILES,IC50
1,CCCC[C@H]1C(=O)N(C)[C@@H](CCCC)C(=O)N[C@@H](CC(C)C)C(=O)N[C@H](C(=O)NCC(N)=O)CSCC(=O)N[C@@H](Cc2ccc(O)cc2)C(=O)N(C)[C@@H](C)C(=O)N[C@@H](CC(N)=O)C(=O)N2CCC[C@H]2C(=O)N[C@@H](CNC(=O)Nc2ccccc2-c2ccccc2)C(=O)N[C@@H](CC(C)C)C(=O)N2C[C@H](O)C[C@H]2C(=O)N[C@@H](Cc2c[nH]c3ccccc23)C(=O)N[C@@H](CCNC(=O)Nc2ccccc2-c2ccccc2)C(=O)N[C@@H](Cc2cn(CC(=O)O)c3ccccc23)C(=O)N1C [Example 1126] ({CH2CO}-Y[NMeA]NP[Dap]([CO-X2])L[Hyp]W[Dab]([CO-X2])[Trp(1-CH2COOH)][NMeNle][NMeNle]LCG-NH2; thioether N-14),1 nM
